This note sets out measurements from patent publication US7342089B2, “Cyclic peptides for treatment for cachexia” (Palatin Technologies, Inc., priority 2002, dated 2008).

The structures appear in SMILES notation. Positions of bridges follow the written chain, without caps; N, C: chain ends. Non-standard residues stand in square brackets, D forms with d. Residues, ends and D or L forms follow the SMILES beside them. 2Nal = N[C@@H](Cc1ccc2ccccc2c1)C(=O)O; d2Nal = N[C@H](Cc1ccc2ccccc2c1)C(=O)O; Nle = CCCC[C@H](N)C(=O)O

One assay addresses T1, hMC5-R (Homo sapiens, UniProt P33032).
T1 construct: expressed in transfected cells; host or cells: HEK-293
As to the kind of experiment: Competitive inhibition binding assay using [I125]-NDP-α-MSH, hMC5-R. Particulars: HEK-293 membranes, read-out: Ki MC5-R.

In assay [1] the target is T2, MC1-R (B-16 mouse melanoma cells) (Mus musculus, UniProt Q01727). As to the kind of experiment: Competitive inhibition binding assay using [I125]-NDP-α-MSH, MC1-R. Particulars: B-16 mouse melanoma cell membranes. The procedure:
Each assay is conducted in triplicate.

The subject of a further assay is rats. Put plainly: ICV feeding studies. In kind it is in vivo, rat. Particulars: lowest value of multiple tests, parentheses = decrease. As to the method:
Change in food intake and body weight is evaluated for selected peptides. Rats with indwelling intracerebroventricular cannulas (ICV rats) are obtained from Hilltop Lab Animals, Inc. (Scottdale, Pa.). Animals are individually housed in conventional plexiglass hanging cages and maintained on a controlled 12 hour on/off light cycle. Water and powdered (LabDiet, 5P00 Prolab RMH 3000) or pelleted (Harlan Teklad 2018 18% Protein Rodent Diet) food is provided ad libitum. For 1 week before treatment, 24-hour food intake and body weight change is recorded to assess a baseline for the group during vehicle treatment. The rats are dosed ICV with vehicle or selected cyclic peptides (0.3-3 nmol). The changes in body weight and food intake for the 24 hour period after dosing are determined. The changes in body weight and food intake for the 48 hour and 72 hour periods after dosing are also measured to determine reversal of changes in body weight and food intake effects back to baseline levels.
A series of ICV feeding studies were conducted on rats. All animals were dosed on the first day with saline ICV, and given a pre-weighed food bowl with food weight recorded at 2 and 21 hours post-ICV injection. On day 2, animals were randomized based on the 21 hour food consumption, with animals eliminated due to low food consumption or food spills. […] Food weights were again recorded at 2, 4, 21 and 24 hours post-icv injection. In most instances, multiple different tests were conducted which each group containing between 8 and 12 members; the lowest value is shown below. Values are shown as percent increase (decrease) in aggregate food intake. “ND” means no test was conducted at that dose level.

A further assay concerns the target T3, hMC4-R (Homo sapiens, UniProt P32245).
T3 construct: expressed in transfected cells; host or cells: HEK-293
As to the kind of experiment: Competitive inhibition binding assay using [I125]-NDP-α-MSH, hMC4-R. As to conditions: HEK-293 membranes, read-out: Ki MC4-R.

The next assay concerns the target T4, hMC3-R (Homo sapiens, UniProt P41968).
T4 construct: expressed in transfected cells; host or cells: HEK-293
As to the kind of experiment: Competitive inhibition binding assay using [I125]-NDP-α-MSH, hMC3-R. As to conditions: HEK-293 membranes, read-out: Ki MC3-R.

A further assay has as its target T5, hMC4-R (HEK-293 cells) (Homo sapiens, UniProt P32245).
T5 construct: expressed in transfected cells; host or cells: HEK-293
As to the kind of experiment: cAMP assay for agonist/antagonist status and functional antagonism, MC4-R. It counts as cell-based. As to conditions: for agonist/antagonist status as to MC4-R: cAMP assay; for Kb: functional antagonism, Schild's analysis vs NDP-α-MSH, read-out: pA2 value as to MC4-R (converted). For orientation: Cyclic AMP is a second messenger, typically raised through Gs and lowered through Gi signalling.

In assay [2] the target is T2, MC1-R (B-16 mouse melanoma cells). As to the kind of experiment: cAMP assay for agonist/antagonist status, MC1-R. It counts as cell-based. Particulars: for EC50: read-out: EC50 as to MC1-R. The procedure:
Cells are incubated with the test peptides in the presence or absence of α-MSH for 1 hour at 37° C. cAMP levels in the cell lysates are measured using the EIA kit (Amersham). Data analysis and EC50 values are determined using nonlinear regression analysis with Prism Graph-Pad software.
The agonist/antagonist status with respect to MC1-R, MC4-R and MC5-R of certain peptides of the invention is determined. Antagonistic activity is determined by measuring the inhibition of α-MSH-induced or NDP-α-MSH-induced cAMP levels following exposure to the peptides as in the preceding descriptions.

The target in a further assay is T6, hMC3-R (HEK-293 cells) (Homo sapiens, UniProt P41968).
T6 construct: expressed in transfected cells; host or cells: HEK-293
T6 sequence (P41968 whole entry): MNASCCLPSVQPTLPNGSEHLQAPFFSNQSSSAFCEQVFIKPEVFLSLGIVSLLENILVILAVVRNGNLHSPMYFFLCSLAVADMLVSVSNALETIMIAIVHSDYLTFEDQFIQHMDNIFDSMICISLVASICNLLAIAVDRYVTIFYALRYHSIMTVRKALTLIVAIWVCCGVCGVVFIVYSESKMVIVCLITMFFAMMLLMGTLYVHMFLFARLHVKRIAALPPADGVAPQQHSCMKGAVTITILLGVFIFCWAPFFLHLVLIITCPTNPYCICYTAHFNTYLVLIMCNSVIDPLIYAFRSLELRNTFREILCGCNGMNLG
As to the kind of experiment: cAMP assay for agonist/antagonist status and functional antagonism, MC3-R. In kind it is cell-based. Particulars: for agonist/antagonist status as to MC3-R: cAMP assay; for Kb: read-out: pA2 value as to MC3-R (converted).

T1 sequence (P33032 whole entry): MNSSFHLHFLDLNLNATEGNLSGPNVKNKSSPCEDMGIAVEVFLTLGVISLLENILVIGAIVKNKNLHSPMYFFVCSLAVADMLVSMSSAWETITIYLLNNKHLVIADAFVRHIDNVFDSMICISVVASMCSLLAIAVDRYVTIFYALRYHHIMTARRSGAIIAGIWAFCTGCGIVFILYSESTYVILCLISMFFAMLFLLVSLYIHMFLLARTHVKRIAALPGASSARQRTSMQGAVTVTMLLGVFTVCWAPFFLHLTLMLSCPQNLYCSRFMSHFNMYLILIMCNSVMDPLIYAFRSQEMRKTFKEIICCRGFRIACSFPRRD
T5 sequence (P32245 whole entry): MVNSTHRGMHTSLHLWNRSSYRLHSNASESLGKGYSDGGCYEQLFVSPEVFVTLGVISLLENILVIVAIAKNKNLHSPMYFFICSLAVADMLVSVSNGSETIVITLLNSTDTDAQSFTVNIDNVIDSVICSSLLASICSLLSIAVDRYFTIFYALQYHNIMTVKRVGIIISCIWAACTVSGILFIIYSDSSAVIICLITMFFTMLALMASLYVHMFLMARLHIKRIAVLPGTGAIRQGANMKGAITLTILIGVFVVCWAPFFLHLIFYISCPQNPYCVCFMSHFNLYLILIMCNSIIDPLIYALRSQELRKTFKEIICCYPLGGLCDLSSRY
T3 sequence (P32245 whole entry): as above
T4 sequence (P41968 whole entry): as the sequence (P41968 whole entry) above
T2 sequence (Q01727 whole entry): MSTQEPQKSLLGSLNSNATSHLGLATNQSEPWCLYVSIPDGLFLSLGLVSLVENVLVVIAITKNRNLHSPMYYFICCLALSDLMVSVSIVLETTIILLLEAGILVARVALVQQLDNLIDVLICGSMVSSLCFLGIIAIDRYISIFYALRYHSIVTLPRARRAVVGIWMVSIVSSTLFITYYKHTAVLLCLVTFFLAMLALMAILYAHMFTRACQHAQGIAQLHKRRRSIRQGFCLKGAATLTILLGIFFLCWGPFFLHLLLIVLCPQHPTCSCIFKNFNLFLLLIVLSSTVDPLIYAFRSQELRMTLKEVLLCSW
Description for hMC3-R (HEK-293 cells): Assay for neutral antagonist.
Experimental details are similar to the analysis for agonistic activity and are described above. Briefly, cells are pre-incubated for 30 minutes with the test peptides at concentrations between 0.5 nM and 5000 nM. […] For Schild's analysis, the interactions are studied using at least 3 concentrations of the peptides, separated by a log unit, over a full range of the agonist (0.005-5000 nM). cAMP levels is measured in the cell lysates after appropriate dilution. Nonlinear regression analysis with the Prism Graph-Pad software is used for Schild's analysis and to obtain EC50 values. pA2 values are derived from the Schild's plot.
Description for hMC4-R (HEK-293 cells): Confluent HEK-293 cells over-expressing MC4-R are detached by enzyme free cell suspension buffer. […] The cells are plated in a 96 well plates at a density of 0.5×10^5 cells per well and pre-incubated for 30 minutes. The cells are then challenged with the test peptides dissolved in dimethylsulfoxide (DMSO) at a concentration range of 0.05-5000 nM in a total assay volume of 200 μL for 1 hour at 37° C. The concentration of DMSO is always held at 1% in the assay mixture. […] At the end of the incubation period the cells are disrupted by the addition of 50 μL lysis buffer from the cAMP EIA kit (Amersham). Complete rupture of the cells is ensured by pipetting the cells up and down multiple times. cAMP levels in the cell lysates are measured after appropriate dilution using the EIA kit (Amersham) method. Data analysis and EC50 values are determined by using nonlinear regression analysis with the Prism Graph-Pad software. […] Peptides with a response ratio of less than 0.1 are evaluated for antagonistic activity.
Briefly, cells are pre-incubated for 30 minutes with the test peptides at concentrations between 0.5 nM and 5000 nM. […] For Schild's analysis, the interactions are studied using at least 3 concentrations of the peptides, separated by a log unit, over a full range of the agonist (0.005-5000 nM). cAMP levels is measured in the cell lysates after appropriate dilution. Nonlinear regression analysis with the Prism Graph-Pad software is used for Schild's analysis and to obtain EC50 values. pA2 values are derived from the Schild's plot.

Usually Ki stands for a dissociation constant, usually derived from enzyme kinetics or from competition with a known ligand. Usually EC50 stands for the concentration at which the effect is half-maximal. As for `CC(=O)N[C@H]1CC(=O)NCCCC[C@@H](C(=O)O)NC(=O)[C@H](Cc2ccc3ccccc3c2)NC(=O)[C@H](CCCNC(=N)N)NC(=O)[C@@H](Cc2ccc3ccccc3c2)NC(=O)[C@H](Cc2c[nH]cn2)NC1=O` [Example 15, Ac-cyclo(-Asp-His-D-Nal 2-Arg-Nal 2-Lys)-OH] (Ac-DH[d2Nal]R[2Nal]K-OH; lactam 1-6), the inhibition constant Ki on hMC5-R is 89 nM; in assay [1], 143 nM; at hMC4-R, 2 nM; on hMC3-R it was 6 nM. Moreover, the “Percent Increase (Decrease) In Aggregate Food Intake After ICV Administration of Peptide Compared to Vehicle (Saline)” value in the assay on rats (1 nmol) is listed as 32%. The “agonist/antagonist status as to MC4-R” value at hMC4-R (HEK-293 cells) was “antagonist”. The Kb at hMC4-R (HEK-293 cells) was 10 nM. Besides, the “agonist/antagonist status as to MC1-R” value in assay [2] is “partial agonist”. In assay [2], the EC50 amounted to 2150 nM. The “agonist/antagonist status as to MC3-R” value at hMC3-R (HEK-293 cells) was “antagonist”.

As to `CNC(=O)[C@@H]1CCCCNC(=O)C[C@H](NC(C)=O)C(=O)N[C@@H](Cc2c[nH]c3ccccc23)C(=O)N[C@H](Cc2ccc3ccccc3c2)C(=O)N[C@@H](CCCNC(=N)N)C(=O)N[C@@H](Cc2ccc3ccccc3c2)C(=O)N1` [Example 19, Ac-cyclo(-Asp-Trp-D-Nal 2-Arg-Nal 2-Lys)-NH—CH3] (Ac-DW[d2Nal]R[2Nal]K-NHMe; lactam 1-6), the Ki at hMC5-R is 6 nM; in assay [1] it was 643 nM; on hMC4-R it was 0.06 nM; at hMC3-R, 3 nM. Moreover, the “Percent Increase (Decrease) In Aggregate Food Intake After ICV Administration of Peptide Compared to Vehicle (Saline)” value with rats (0.3 nmol) is listed as 28%; with rats (1 nmol), 32%. On hMC4-R (HEK-293 cells), the “agonist/antagonist status as to MC4-R” value was “antagonist”. Besides, the Kb on hMC4-R (HEK-293 cells) was 1.26 nM; at hMC3-R (HEK-293 cells), 8.51 nM. The “agonist/antagonist status at MC1-R” value in assay [2] (peptide at 1 μM concentration) was “inactive”. The “agonist/antagonist status as to MC3-R” value at hMC3-R (HEK-293 cells) is recorded as “antagonist”.

With `CCNC(=O)[C@@H]1CCCCNC(=O)C[C@H](NC(C)=O)C(=O)N[C@@H](Cc2c[nH]c3ccccc23)C(=O)N[C@H](Cc2ccc3ccccc3c2)C(=O)N[C@@H](CCCNC(=N)N)C(=O)N[C@@H](Cc2ccc3ccccc3c2)C(=O)N1` [Example 17, Ac-cyclo(-Asp-Trp-D-Nal 2-Arg-Nal 2-Lys)-NH—CH2—CH3] (Ac-DW[d2Nal]R[2Nal]K-NHEt; lactam 1-6), the Ki on hMC5-R is 3 nM; in assay [1], 194 nM; at hMC4-R, 0.03 nM; on hMC3-R, 1 nM. For the same compound, the “Percent Increase (Decrease) In Aggregate Food Intake After ICV Administration of Peptide Compared to Vehicle (Saline)” value with rats (0.3 nmol) is 32%; in the assay on rats (1 nmol), 20%. Further, at hMC4-R (HEK-293 cells), the “agonist/antagonist status as to MC4-R” value is “antagonist”. The Kb on hMC4-R (HEK-293 cells) is 1.74 nM; at hMC3-R (HEK-293 cells) it was 9.12 nM. For the same compound, in assay [2], the “agonist/antagonist status as to MC1-R” value is “partial agonist”. Further, the EC50 in assay [2] was more than 1000 nM. At hMC3-R (HEK-293 cells), the “agonist/antagonist status as to MC3-R” value is “antagonist”.

In turn, `CCCC[C@H](NC(C)=O)C(=O)N[C@H]1CC(=O)NCCCC[C@@H](C(=O)O)NC(=O)[C@H](Cc2c[nH]c3ccccc23)NC(=O)[C@H](CCCNC(=N)N)NC(=O)[C@@H](Cc2ccc3ccccc3c2)NC(=O)[C@H](Cc2c[nH]cn2)NC1=O` [Example 11, Ac-Nle-cyclo(-Asp-His-D-Nal 2-Arg-Trp-Lys)-OH] came in with a Ki in assay [1] of 3 nM. Further, in the assay on rats (1 nmol), the “Percent Increase (Decrease) In Aggregate Food Intake After ICV Administration of Peptide Compared to Vehicle (Saline)” value is 24%. For the same compound, in assay [2], the “agonist/antagonist status as to MC1-R” value is recorded as “partial agonist” and the EC50 stood at 57 nM.

The compound `CCCC[C@H](NC(C)=O)C(=O)N[C@H]1CC(=O)NCCCC[C@@H](C(=O)O)NC(=O)[C@H](Cc2ccc3ccccc3c2)NC(=O)[C@H](CCCNC(=N)N)NC(=O)[C@@H](Cc2ccc3ccccc3c2)NC(=O)[C@H](Cc2c[nH]c3ccccc23)NC1=O` [Example 13, Ac-Nle-cyclo(-Asp-Trp-D-Nal 2-Arg-Nal 2-Lys)-OH] (Ac-[Nle]DW[d2Nal]R[2Nal]K-OH; lactam 2-7) gave a Ki in assay [1] of 119 nM. For the same compound, the “agonist/antagonist status as to MC1-R” value in assay [2] is “partial agonist”.
